Results taken from the NIST ThermoML archive (doi:10.1021/acs.jced.6b00496).

Test: xn = mol fraction of the nth substance listed
Conditions: 81.5 kPa, Liquid; for speed of sound: Sing-around technique in a fixed-path interferometer; for mass density: Vibrating tube method

CCn1cc[n+](C)c1.F[B-](F)(F)F [1-ethyl-3-methylimidazolium tetrafluoroborate] + CC(=O)N(C)C
Conditions | mass density [kg/m3] | speed of sound [m/s]
293.15 K, x1 = 0.131 | 1020.02 | 1520.9
293.15 K, x1 = 0.198 | 1054.86 | 1544.9
293.15 K, x1 = 0.2976 | 1098.69 | 1566.5
293.15 K, x1 = 0.3868 | 1134.17 | 1581.8
293.15 K, x1 = 0.4734 | 1164.33 | 1594.3
293.15 K, x1 = 0.563 | 1190.97 | 1606.8
293.15 K, x1 = 0.7089 | 1230.24 | 1620
293.15 K, x1 = 0.7973 | 1244.59 | 1625.7
293.15 K, x1 = 0.8821 | 1257.25 | 1629.9
293.15 K, x1 = 1 | 1285.95 | 1640.4
298.15 K, x1 = 0.131 | 1015.67 | 1502.5
298.15 K, x1 = 0.198 | 1050.63 | 1527.6
298.15 K, x1 = 0.2976 | 1094.55 | 1550.4
298.15 K, x1 = 0.3868 | 1130.11 | 1566.4
298.15 K, x1 = 0.4734 | 1160.32 | 1579.8
298.15 K, x1 = 0.563 | 1187.07 | 1592.9
298.15 K, x1 = 0.7089 | 1226.34 | 1606.9
298.15 K, x1 = 0.7973 | 1240.73 | 1613
298.15 K, x1 = 0.8821 | 1253.4 | 1617.4
298.15 K, x1 = 1 | 1282.14 | 1628.4
303.15 K, x1 = 0.131 | 1011.32 | 1484.4
303.15 K, x1 = 0.198 | 1046.39 | 1510.4
303.15 K, x1 = 0.2976 | 1090.43 | 1534.3
303.15 K, x1 = 0.3868 | 1126.06 | 1551.3
303.15 K, x1 = 0.4734 | 1156.33 | 1565.3
303.15 K, x1 = 0.563 | 1183.16 | 1579.1
303.15 K, x1 = 0.7089 | 1222.46 | 1594.1
303.15 K, x1 = 0.7973 | 1236.88 | 1600.4
303.15 K, x1 = 0.8821 | 1249.55 | 1605.1
303.15 K, x1 = 1 | 1278.34 | 1616
308.15 K, x1 = 0.131 | 1006.92 | 1466.5
308.15 K, x1 = 0.198 | 1042.17 | 1493.4
308.15 K, x1 = 0.2976 | 1086.31 | 1518.5
308.15 K, x1 = 0.3868 | 1122.03 | 1536.2
308.15 K, x1 = 0.4734 | 1152.37 | 1551.1
308.15 K, x1 = 0.563 | 1179.25 | 1565.5
308.15 K, x1 = 0.7089 | 1218.61 | 1581.4
308.15 K, x1 = 0.7973 | 1233.06 | 1588
308.15 K, x1 = 0.8821 | 1245.73 | 1592.9
308.15 K, x1 = 1 | 1274.55 | 1604.9
313.15 K, x1 = 0.131 | 1002.63 | 1448.8
313.15 K, x1 = 0.198 | 1037.96 | 1476.5
313.15 K, x1 = 0.2976 | 1082.21 | 1502.7
313.15 K, x1 = 0.3868 | 1118 | 1521.4
313.15 K, x1 = 0.4734 | 1148.41 | 1536.9
313.15 K, x1 = 0.563 | 1175.34 | 1552.1
313.15 K, x1 = 0.7089 | 1214.78 | 1568.8
313.15 K, x1 = 0.7973 | 1229.25 | 1575.7
313.15 K, x1 = 0.8821 | 1241.92 | 1580.8
313.15 K, x1 = 1 | 1270.78 | 1593.4
318.15 K, x1 = 0.131 | – | 1431.2
318.15 K, x1 = 0.198 | – | 1459.8
318.15 K, x1 = 0.2976 | – | 1487.1
318.15 K, x1 = 0.3868 | – | 1506.6
318.15 K, x1 = 0.4734 | – | 1522.9
318.15 K, x1 = 0.563 | – | 1538.7
318.15 K, x1 = 0.7089 | – | 1556.3
318.15 K, x1 = 0.7973 | – | 1563.5
318.15 K, x1 = 0.8821 | – | 1568.9
318.15 K, x1 = 1 | – | 1582
